# Measurements reported in patent publication US8835428B2, “Diacylglycerol acyltransferase inhibitors” (Piramal Enterprises Limited, priority 2008, dated 2014).
# Molecular target: T1, hDGAT1 (Homo sapiens, UniProt O75907)
# T1 construct: host or cells: Sf9 insect cells (baculovirus); microsomal preparation
# T1 sequence (O75907 1-488): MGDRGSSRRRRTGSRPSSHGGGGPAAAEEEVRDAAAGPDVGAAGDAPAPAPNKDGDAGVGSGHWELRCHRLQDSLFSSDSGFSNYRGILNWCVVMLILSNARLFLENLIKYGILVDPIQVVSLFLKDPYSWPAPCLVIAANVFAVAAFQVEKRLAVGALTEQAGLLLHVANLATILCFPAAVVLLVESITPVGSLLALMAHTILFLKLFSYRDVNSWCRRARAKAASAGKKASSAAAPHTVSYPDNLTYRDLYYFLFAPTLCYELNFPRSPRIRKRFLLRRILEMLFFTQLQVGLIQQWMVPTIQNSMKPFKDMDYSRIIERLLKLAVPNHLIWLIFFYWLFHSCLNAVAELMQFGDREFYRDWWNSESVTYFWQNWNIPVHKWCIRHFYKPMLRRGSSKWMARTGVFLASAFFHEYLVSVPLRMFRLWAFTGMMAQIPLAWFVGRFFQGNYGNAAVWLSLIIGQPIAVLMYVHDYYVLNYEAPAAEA
# Assay: In-vitro DGAT1 assay (hDGAT1 microsomes from Sf9 cells, 14C oleoyl CoA, triglyceride formation)
# Type: biochemical
# Conditions: At 1 μM
# Method in brief: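 Human DGAT1 in baculovirus-infected Sf9 microsomes (2.5–10 μg), [14C]oleoyl-CoA with 409.5, 1228.5 or 1638 μM 1,2-dioleoyl-sn-glycerol, Tris-HCl pH 7.4 buffer with BSA. Compounds screened at 10, 5 and 1 μM in duplicate. Reaction 10 min at 37 °C; heptane-extracted [14C]triglyceride counted by scintillation.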
row,inhibition at 1 µM [%],SMILES
1,75 to 100,"Cc1ccc(F)c(NC(=O)Nc2ccc(-c3cc(C(=O)NC(C(=O)O)C(C)C)on3)cc2)c1 (stereo not drawn) [Example 156, 2-(3-(4-(3-(2-fluoro-5-methylphenyl)ureido)phenyl)isoxazole-5-carboxamido)-3-methylbutanoic acid]"
2,75 to 100,"CC(C)C(NC(=O)c1cc(-c2ccc(NC(=O)Nc3ccc(F)c(Cl)c3)cc2)no1)C(=O)O (stereo not drawn) [Example 162, 2-(3-(4-(3-(3-chloro-4-fluorophenyl)ureido)phenyl)isoxazole-5-carboxamido)-3-methylbutanoic acid]"
3,75 to 100,"Cc1ccc(NC(=O)Nc2ccc(-c3cc(C(=O)N[C@H](C(=O)O)C(C)C)on3)cc2)c(C)c1 [Example 171, (S)-2-(3-(4-(3-(2,4-dimethylphenyl)ureido)phenyl)isoxazole-5-carboxamido)-3-methylbutanoic acid]"
4,75 to 100,"Cc1ccc(NC(=O)Nc2ccc(-c3cc(C(=O)N[C@H](C(=O)O)C(C)C)on3)cc2)cc1C [Example 173, (S)-2-(3-(4-(3-(3,4-dimethylphenyl)ureido)phenyl)isoxazole-5-carboxamido)-3-methylbutanoic acid]"
5,0 to 50,"Cc1cccc(Cl)c1NC(=O)Nc1ccc(-c2cc(C(=O)N[C@H](C(=O)O)C(C)C)on2)cc1 [Example 175, (S)-2-(3-(4-(3-(2-Chloro-6-methylphenyl)ureido)phenyl)isoxazole-5-carboxamido)-3-methylbutanoic acid]"
6,75 to 100,"CC(C)[C@H](NC(=O)c1cc(-c2ccc(NC(=O)Nc3ccc(Cl)cc3)cc2)no1)C(=O)O [Example 179, (S)-2-(3-(4-(3-(4-Chlorophenyl)ureido)phenyl)isoxazole-5-carboxamido)-3-methylbutanoic acid]"
7,75 to 100,"CC(C)[C@H](NC(=O)c1cc(-c2ccc(NC(=O)Nc3cccc(Cl)c3F)cc2)no1)C(=O)O [Example 183, (S)-2-(3-(4-(3-(3-chloro-2-fluorophenyl)ureido)phenyl)isoxazole-5-carboxamido)-3-methylbutanoic acid]"
8,75 to 100,"COc1ccccc1NC(=O)Nc1ccc(-c2cc(C(=O)N[C@H](C(=O)O)C(C)C)on2)cc1 [Example 185, (S)-2-(3-(4-(3-(2-methoxyphenyl)ureido)phenyl)isoxazole-5-carboxamido)-3-methylbutanoic acid]"
9,75 to 100,"Cc1ccc(Cl)c(NC(=O)Nc2ccc(-c3cc(C(=O)N[C@H](C(=O)O)C(C)C)on3)cc2)c1 [Example 189, (S)-2-(3-(4-(3-(2-chloro-5-methylphenyl)ureido)phenyl)isoxazole-5-carboxamido)-3-methylbutanoic acid]"
10,75 to 100,"CC(C)[C@H](NC(=O)c1cc(-c2ccc(NC(=O)Nc3ccc(F)c(F)c3F)cc2)no1)C(=O)O [Example 191, (S)-3-Methyl-2-(3-(4-(3-(2,3,4-trifluorophenyl)ureido)phenyl)isoxazole-5-carboxamido)butanoic acid]"
11,75 to 100,"CC(C)[C@H](NC(=O)c1cc(-c2ccc(NC(=O)Nc3ccc(Cl)cc3F)cc2)no1)C(=O)O [Example 193, (S)-2-(3-(4-(3-(4-chloro-2-fluorophenyl)ureido)phenyl)isoxazole-5-carboxamido)-3-methylbutanoic acid]"
12,75 to 100,"Cc1ccc(Cl)cc1NC(=O)Nc1ccc(-c2cc(C(=O)N[C@H](C(=O)O)C(C)C)on2)cc1 [Example 195, (S)-2-(3-(4-(3-(5-chloro-2-methylphenyl)ureido)phenyl)isoxazole-5-carboxamido)-3-methylbutanoic acid]"
13,75 to 100,"CC(C)[C@H](NC(=O)c1cc(-c2ccc(NC(=O)Nc3cc(F)ccc3F)cc2)no1)C(=O)O [Example 199, (S)-2-(3-(4-(3-(2,5-Difluorophenyl)ureido)phenyl)isoxazole-5-carboxamido)-3-methylbutanoic acid]"
14,50 to 75,"Cc1cc(C)cc(NC(=O)Nc2ccc(-c3cc(C(=O)N[C@H](C(=O)O)C(C)C)on3)cc2)c1 [Example 205, (S)-2-(3-(4-(3-(3,5-dimethylphenyl)ureido)phenyl)isoxazole-5-carboxamido)-3-methylbutanoic acid]"
15,75 to 100,"CC(C)[C@H](NC(=O)c1cc(-c2ccc(NC(=O)Nc3cccc(Cl)c3)cc2)no1)C(=O)O [Example 209, (S)-2-(3-(4-(3-(3-chlorophenyl)ureido)phenyl)isoxazole-5-carboxamido)-3-methylbutanoic acid]"
16,50 to 75,"CC(C)[C@H](NC(=O)c1cc(-c2ccc(NC(=O)Nc3ccc(F)cc3C(F)(F)F)cc2)no1)C(=O)O [Example 213, (S)-2-(3-(4-(3-(4-fluoro-2-(trifluoromethyl)phenyl)ureido)phenyl)isoxazole-5-carboxamido)-3-methylbutanoic acid]"

# Further lines, the molecule ahead of its results:
row,SMILES,inhibition at 1 µM [%]
1,"CCCCc1ccc(NC(=O)Nc2ccc(-c3cc(C(=O)NC(C(=O)O)C(C)C)on3)cc2)cc1 (stereo not drawn) [Example 158, 2-(3-(4-(3-(4-butylphenyl)ureido)phenyl)isoxazole-5-carboxamido)-3-methylbutanoic acid]",75 to 100
2,"CC(C)C(NC(=O)c1cc(-c2ccc(NC(=O)Nc3cc(F)cc(F)c3)cc2)no1)C(=O)O (stereo not drawn) [Example 160, 2-(3-(4-(3-(3,5-difluorophenyl)ureido)phenyl)isoxazole-5-carboxamido)-3-methylbutanoic acid]",75 to 100
3,"CC(C)[C@H](NC(=O)c1cc(-c2ccc(NC(=O)Nc3ccccc3C(F)(F)F)cc2)no1)C(=O)O [Example 164, (S)-3-methyl-2-(3-(4-(3-(2-(trifluoromethyl)phenyl)ureido)phenyl)isoxazole-5-carboxamido)butanoic acid]",75 to 100
4,"COc1ccc(OC)c(NC(=O)Nc2ccc(-c3cc(C(=O)N[C@H](C(=O)O)C(C)C)on3)cc2)c1 [Example 166, (S)-2-(3-(4-(3-(2,5-Dimethoxyphenyl)ureido)phenyl)isoxazole-5-carboxamido)-3-methylbutanoic acid]",50 to 75
5,"CC(C)[C@H](NC(=O)c1cc(-c2ccc(NC(=O)Nc3cc(F)cc(F)c3)cc2)no1)C(=O)O [Example 167, (S)-2-(3-(4-(3-(3,5-difluorophenyl)ureido)phenyl)isoxazole-5-carboxamido)-3-methylbutanoic acid]",75 to 100
6,"COc1ccc(NC(=O)Nc2ccc(-c3cc(C(=O)N[C@H](C(=O)O)C(C)C)on3)cc2)c(OC)c1 [Example 169, (S)-2-(3-(4-(3-(2,4-dimethoxyphenyl)ureido)phenyl)isoxazole-5-carboxamido)-3-methylbutanoic acid]",50 to 75
7,"CC(C)[C@H](NC(=O)c1cc(-c2ccc(NC(=O)Nc3ccc4c(c3)OCO4)cc2)no1)C(=O)O [Example 177, (S)-2-(3-(4-(3-benzo[d][1,3]dioxol-5-ylureido)phenyl)isoxazole-5-carboxamido)-3-methylbutanoic acid]",75 to 100
8,"CC(C)[C@H](NC(=O)c1cc(-c2ccc(NC(=O)Nc3ccc4c(c3)CCC4)cc2)no1)C(=O)O [Example 181, (S)-2-(3-(4-(3-(2,3-dihydro-1H-inden-5-yl)ureido)phenyl)isoxazole-5-carboxamido)-3-methylbutanoic acid]",75 to 100
9,"CC(C)[C@H](NC(=O)c1cc(-c2ccc(NC(=O)Nc3ccc(OC(F)(F)F)cc3)cc2)no1)C(=O)O [Example 187, (S)-3-methyl-2-(3-(4-(3-(4-(trifluoromethoxy)phenyl)ureido)phenyl)isoxazole-5-carboxamido)butanoic acid]",75 to 100
10,"CSc1ccc(NC(=O)Nc2ccc(-c3cc(C(=O)N[C@H](C(=O)O)C(C)C)on3)cc2)cc1 [Example 197, (S)-3-methyl-2-(3-(4-(3-(4-(methylthio)phenyl)ureido)phenyl)isoxazole-5-carboxamido)butanoic acid]",75 to 100
11,"CC(C)[C@H](NC(=O)c1cc(-c2ccc(NC(=O)Nc3ccc(Cl)cc3Oc3ccccc3)cc2)no1)C(=O)O [Example 201, (S)-2-(3-(4-(3-(4-Chloro-2-phenoxyphenyl)ureido)phenyl)isoxazole-5-carboxamido)-3-methylbutanoic acid]",75 to 100
12,"CC(C)[C@H](NC(=O)c1cc(-c2ccc(NC(=O)Nc3ccccc3OC(F)(F)F)cc2)no1)C(=O)O [Example 203, (S)-3-methyl-2-(3-(4-(3-(2-(trifluoromethoxy)phenyl)ureido)phenyl)isoxazole-5-carboxamido)butanoic acid]",75 to 100
13,"CC(C)[C@H](NC(=O)c1cc(-c2ccc(NC(=O)Nc3ccc(Cl)nc3)cc2)no1)C(=O)O [Example 207, (S)-2-(3-(4-(3-(6-chloropyridin-3-yl)ureido)phenyl)isoxazole-5-carboxamido)-3-methylbutanoic acid]",0 to 50
14,"CC(C)[C@H](NC(=O)c1cc(-c2ccc(NC(=O)Nc3cc(C(F)(F)F)ccc3Cl)cc2)no1)C(=O)O [Example 211, (S)-2-(3-(4-(3-(2-chloro-5-(trifluoromethyl)phenyl)ureido)phenyl)isoxazole-5-carboxamido)-3-methylbutanoic acid]",75 to 100
